Measured values reported in patent publication US10130693B2, “Peptides, combination of peptides and scaffolds for use in immunotherapeutic treatment of various cancers” (Immatics Biotechnologies GmbH, priority 2015, dated 2018).

What was measured:
[1] = system: HLA-A*24; experiment: MHC binding assay, UV-ligand exchange with beta2m ELISA (exchange yield), HLA-A*24; design: species or system human; conditions: binding to HLA-A*24, UV-ligand exchange
How it was run: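 Peptide–MHC complexes formed by UV-ligand exchange: a UV-cleavable peptide is replaced by the test peptide, and only binders keep the complex stable. Exchange yield read by streptavidin-capture ELISA on reactions diluted 100-fold, detected with HRP anti-β2m (2 ug/ml, 1 h, 37° C) and TMB at 450 nm.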

[2] = system: CD8+ T cells; experiment: In vitro immunogenicity: T-cell priming with aAPCs loaded with HLA-A*24 peptide/MHC and anti-CD28, multimer staining; format: cell-based, human; conditions: HLA-A*24 peptides
Procedure: CD8+ T cells were primed using artificial APCs coated with anti-CD28 mAb and HLA-A*24 in complex with SEQ ID NO: 99 peptide (FIG. 5A, left panel), SEQ ID NO: 119 peptide (FIG. 5B, left panel), SEQ ID NO: 142 peptide (FIG. 5C, left panel) and SEQ ID NO: 174 peptide FIG. 5 (D, left panel), respectively. After three cycles of stimulation, the detection of peptide-reactive cells was performed by 2D multimer staining with A*24/SEQ ID NO: 99 (FIG. 5A), A*24/SEQ ID NO: 119 (FIG. 5B), A*24/SEQ ID NO: 142 (FIG. 5C) or A*24/SEQ ID NO: 174 (FIG. 5D). Right panels (FIGS. 5A,5B,5C and 5D) show control staining of cells stimulated with irrelevant A*24/peptide complexes. Viable singlet cells were gated for CD8+ lymphocytes. Boolean gates helped excluding false-positive events detected with multimers specific for different peptides. Frequencies of specific multimer+ cells among CD8+ lymphocytes are indicated.
Generation of pMHC/anti-CD28 coated beads, T-cell stimulations and readout was performed in a highly defined in vitro system using four different pMHC molecules per stimulation condition and 8 different pMHC molecules per readout condition.
The purified co-stimulatory mouse IgG2a anti human CD28 Ab 9.3 (Jung et al., 1987) was chemically biotinylated using Sulfo-N-hydroxysuccinimidobiotin as recommended by the manufacturer (Perbio, Bonn, Germany). Beads used were 5.6 μm diameter streptavidin coated polystyrene particles (Bangs Laboratories, Illinois, USA).
800.000 beads/200 μl were coated in 96-well plates in the presence of 4×12.5 ng different biotin-pMHC, washed and 600 ng biotin anti-CD28 were added subsequently in a volume of 200 μl. Stimulations were initiated in 96-well plates by co-incubating 1×10^6 CD8+ T cells with 2×10^5 washed coated beads in 200 μl TCM supplemented with 5 ng/ml IL-12 (PromoCell) for 3 days at 37° C. Half of the medium was then exchanged by fresh TCM supplemented with 80 U/ml IL-2 and incubating was continued for 4 days at 37° C. This stimulation cycle was performed for a total of three times. For the pMHC multimer readout using 8 different pMHC molecules per condition, a two-dimensional combinatorial coding approach was used as previously described (Andersen et al., 2012) with minor modifications encompassing coupling to 5 different fluorochromes. Finally, multimeric analyses were performed by staining the cells with Live/dead near IR dye (Invitrogen, Karlsruhe, Germany), CD8-FITC antibody clone SK1 (BD, Heidelberg, Germany) and fluorescent pMHC multimers. For analysis, a BD LSRII SORP cytometer equipped with appropriate lasers and filters was used. Peptide specific cells were calculated as percentage of total CD8+ cells. Evaluation of multimeric analysis was done using the FlowJo software (Tree Star, Oregon, USA). In vitro priming of specific multimer+CD8+ lymphocytes was detected by comparing to negative control stimulations.

Substance	Peptide exchange (MHC class I binding score, peptide exchange yield) [1]	in vitro immunogenicity, Wells positive [%] [2]
144 (VFASLPGFLF; listed as Homo sapiens) [compound 144]	++++ (>=75% = ++++)	++ (20%-49% = ++)
155 (IYKWITDNF; listed as Homo sapiens) [compound 155]	++++ (>=75% = ++++)	++ (20%-49% = ++)
156 (YYMELTKLLL; listed as Homo sapiens) [compound 156]	++++ (>=75% = ++++)	+ (<20% = +)
157 (DYIPASGFALF; listed as Homo sapiens) [compound 157]	+++ (50%-75% = +++)	+ (<20% = +)
158 (IYEETRGVLKVF; listed as Homo sapiens) [compound 158]	+++ (50%-75% = +++)	+ (<20% = +)
160 (RYGDGGSSF; listed as Homo sapiens) [compound 160]	+++ (50%-75% = +++)	+ (<20% = +)
161 (KYPDIVQQF; listed as Homo sapiens) [compound 161]	+++ (50%-75% = +++)	+ (<20% = +)
162 (KYTSYILAF; listed as Homo sapiens) [compound 162]	++ (20%-49% = ++)	+ (<20% = +)
163 (RYLTISNLQF; listed as Homo sapiens) [compound 163]	++++ (>=75% = ++++)	+ (<20% = +)
164 (HYVPATKVF; listed as Homo sapiens) [compound 164]	+++ (50%-75% = +++)	+ (<20% = +)
166 (FYTLPFHLI; listed as Homo sapiens) [compound 166]	++++ (>=75% = ++++)	++++ (>=70% = ++++)
167 (RYGFYYVEF; listed as Homo sapiens) [compound 167]	+++ (50%-75% = +++)	++++ (>=70% = ++++)
168 (RYLEAALRL; listed as Homo sapiens) [compound 168]	+++ (50%-75% = +++)	+++ (50%-69% = +++)
170 (QYPFHVPLL; listed as Homo sapiens) [compound 170]	++++ (>=75% = ++++)	+++ (50%-69% = +++)
171 (NYEDHFPLL; listed as Homo sapiens) [compound 171]	+++ (50%-75% = +++)	++ (20%-49% = ++)
172 (VFIFKGNEF; listed as Homo sapiens) [compound 172]	++++ (>=75% = ++++)	+ (<20% = +)
174 (VYEKNGYIYF; listed as Homo sapiens) [compound 174]	+++ (50%-75% = +++)	++++ (>=70% = ++++)
175 (LYSPVPFTL; listed as Homo sapiens) [compound 175]	+++ (50%-75% = +++)	+ (<20% = +)

Now from value to substance, other results behind:

Peptide exchange (MHC class I binding score, peptide exchange yield) [1]	Substance	in vitro immunogenicity, Wells positive [%] [2]
+++ (50%-75% = +++)	177 (VYFKAGLDVF; listed as Homo sapiens) [compound 177]	+ (<20% = +)
+++ (50%-75% = +++)	179 (TYIPVGLGRLL; listed as Homo sapiens) [compound 179]	+++ (50%-69% = +++)
+++ (50%-75% = +++)	180 (KYLQVVGMF; listed as Homo sapiens) [compound 180]	+ (<20% = +)
+++ (50%-75% = +++)	181 (VYPPYLNYL; listed as Homo sapiens) [compound 181]	++++ (>=70% = ++++)
++++ (>=75% = ++++)	182 (AYAQLGYLLF; listed as Homo sapiens) [compound 182]	+++ (50%-69% = +++)
++++ (>=75% = ++++)	186 (VFTTSSNIF; listed as Homo sapiens) [compound 186]	+ (<20% = +)
+++ (50%-75% = +++)	190 (LYSELTETL; listed as Homo sapiens) [compound 190]	++++ (>=70% = ++++)
+++ (50%-75% = +++)	277 (FYTFPFQQL; listed as Homo sapiens) [compound 277]	+++ (50%-69% = +++)
+++ (50%-75% = +++)	344 (EYNSDLHQF; listed as Homo sapiens) [compound 344]	+ (<20% = +)
+++ (50%-75% = +++)	345 (EYNSDLHQFF; listed as Homo sapiens) [compound 345]	++ (20%-49% = ++)
+++ (50%-75% = +++)	349 (QYSIISNVF; listed as Homo sapiens) [compound 349]	++ (20%-49% = ++)
+++ (50%-75% = +++)	350 (KYGNFIDKL; listed as Homo sapiens) [compound 350]	+++ (50%-69% = +++)
+++ (50%-75% = +++)	351 (IFHEVPLKF; listed as Homo sapiens) [compound 351]	++ (20%-49% = ++)
+++ (50%-75% = +++)	353 (TYGKIDLGF; listed as Homo sapiens) [compound 353]	+ (<20% = +)
+++ (50%-75% = +++)	354 (VYNEQIRDLL; listed as Homo sapiens) [compound 354]	+ (<20% = +)
++++ (>=75% = ++++)	356 (NYMPGQLTI; listed as Homo sapiens) [compound 356]	+ (<20% = +)
+++ (50%-75% = +++)	358 (YYSEVPVKL; listed as Homo sapiens) [compound 358]	++++ (>=70% = ++++)
